Values of other authors, collected in paper PMC8277557 (Bioorganic & Medicinal Chemistry Letters, 2021).
Read-outs that look alike come from different tables or passages of the source.

Columns and labels:
CoV-2 3CLpro = conditions: for IC50: read-out: Literature IC50, CoV-2 3CLpro
[1] = in vivo

CCCC[C@@H](C=O)NC(=O)[C@H](CC(C)C)NC(=O)OCc1ccccc1 [Calpeptin]
IC50 (CoV-2 3CLpro; ref [16]): 10.7 ± 0.28 µM
IC50 (CoV-2 3CLpro; ref [31]): 4.81 ± 0.18 µM

CCOC(=O)/C=C/[C@H](C[C@@H]1CCNC1=O)NC(=O)[C@H](CC(C)C)NC(=O)[C@@H](NC(=O)OCc1ccccc1)C(C)C [Compound 3]
Ki (CoV-1 3CLpro; read-out: Literature Ki, CoV-1 3CLpro, ref [19]): 0.66 µM

O=C[C@H](C[C@@H]1CCNC1=O)NC(=O)[C@H](Cc1cccc(F)c1)NC(=O)c1cc2ccccc2[nH]1 [Compound 11b]
IC50 (CoV-2 3CLpro; ref [20]): 0.04 ± 0.002 µM

CC(C)C[C@H](NC(=O)OCc1ccccc1)C(=O)N[C@@H](C[C@@H]1CCNC1=O)C(=O)c1nc2ccccc2s1 [Compound 25c]
IC50 (CoV-1 3CLpro; read-out: Literature IC50): 21 µM

CCOC(=O)/C=C/[C@H](C[C@@H]1CCNC1=O)NC(=O)[C@@H](CC(=O)[C@@H](NC(=O)c1cc(C)on1)C(C)C)Cc1ccc(F)cc1 [Rupintrivir]
activity against SARS-CoV-2 3CLpro (CoV-2 3CLpro; ref [16], [19]): inactive
activity against SARS-CoV-1 3CLpro (CoV-1 3CLpro): inactive

C[C@@H](OC(C)(C)C)[C@H](NC(=O)OCc1ccccc1)C(=O)N[C@@H](CC1CCCCC1)C(=O)N[C@H](C=O)C[C@@H]1CCNC1=O [TG-0205221]
pharmacokinetic profile in rodents [1]: favourable pharmacokinetic profile

Boceprevir
IC50 (CoV-2 3CLpro; ref [16]): 4.13 ± 0.61 µM
IC50 (CoV-2 3CLpro; ref [29]): 5.4 ± 1.53 µM
